{"source": "patent US9999611B2", "about": "“SIRT 1 activator including syringaresinol” (AMOREPACIFIC CORPORATION, priority 2011, dated 2018)", "key": {"[1]": {"tested_on": "aged retinal cells (ARPE-19)", "test": "Mitochondrial function recovering effect in aged retinal cells: energy (ATP) production", "type": "cell-based, human", "conditions": "compared to cells treated only with DMSO, FIG. 16", "method": "The aging of retinal cells was induced while treating with 50 or 100 μM syringaresinol or with DMSO as a negative control, in substantially the same manner as in Test Example 7. For evaluation of mitochondrial function recovering effect, the level of energy (ATP) and reactive oxygen species production in retinal cells was investigated. The energy production was determined by recovering the aged cells after washing with PBS and then with hot water and measuring luminescence using the ATP determination kit (Molecular Probes, Eugene, Oreg., USA) and the Tecan system (Infinite M200, Tecan, Austria). The reactive oxygen species production was measured using a flow cytometer (BD Biosciences, San Jose, Calif., USA) after washing the aged cells with PBS and staining them with the reactive oxygen species detection reagent (H2DCFDA, Invitrogen, Carlsbad, Calif., USA)."}, "Human hepatocytes": {"tested_on": "Human hepatocytes", "test": "Fatty acid oxidation promoting ability (3H2O in medium), hepatocytes", "type": "cell-based", "conditions": "50 μM, vs non-treated group, FIG. 11", "method": "(§1) Human adipocytes, hepatocytes and myocytes were treated with 50 μM syringaresinol in substantially the same manner as in Test Example 3. The cells were washed with PBS and cultured for a day in a medium for fatty acid oxidation analysis. The medium was recovered and the amount of ^3H2O was measured."}, "Human adipocytes": {"tested_on": "Human adipocytes", "test": "Fatty acid oxidation promoting ability (3H2O in medium), adipocytes", "type": "cell-based", "conditions": "50 μM, vs non-treated group, FIG. 11", "method": "as §1"}, "ACO, CPT1, mCAD": {"tested_on": "ACO, CPT1, mCAD", "test": "Expression of fatty acid oxidation-related genes (qRT-PCR)", "type": "cell-based, human", "conditions": "50 μM, vs DMSO control", "method": "Human adipocytes, hepatocytes and myocytes were treated with 50 μM syringaresinol and washed with PBS in substantially the same manner as in Test Example 3. RNA was extracted from the cells and cDNA was synthesized therefrom. The change in expression pattern of fatty acid synthesis-related genes such as ADD1/SREBP1c, ACC, FAS, etc. and fatty acid oxidation-related genes such as ACO, CPT1, mCAD, etc. was measured by qRT-PCR."}, "SIRT1 [2]": {"tested_on": "SIRT1", "test": "SIRT1 expression promoting effect in aged human retinal epithelial cells (western blotting)", "type": "cell-based", "conditions": "aged ARPE-19 cells (5 PDL to 15 PDL), FIG. 14", "method": "The SIRT1 gene expression promoting effect of syringaresinol in aged human retinal epithelial cells was evaluated as follows. Human retinal […] cell line ARPE-19 was purchased from ATCC (Manassa, Va., USA) and cultured in a 5% CO2 incubator using DMEM (Gibco BRL, Grand Island, N.Y., USA) containing 10% bovine serum, 1% penicillin/streptomycin, amphotericin B and an antifungal agent until 70% confluency. […] The population doubling level (PDL) was calculated according to the following equation for each generation until the cell growth was stopped. The PDL value is higher in aged cells. PDL=(Log10Y−Log10X)/Log102 Y: number of cells at the end of the generation X: number of cells at the beginning of the generation 5 PDL cells were treated with syringaresinol dissolved in DMSO at a concentration of 50 or 100 μM every other day while inducing aging to 15 PDL cells. The cells of a negative control were treated with DMSO corresponding to 1/1000 of the volume of the culture medium. […] The isolated protein was quantitated using the BCA assay kit (Pierce, Rockford, USA) and 30 μg was subjected to western blotting using the iBlot Dry blotting system (Invitrogen, Carlsbad, Calif., USA). The SIRT1 protein expression level was measured using anti-SIRT1 antibody (Santa Cruz Biotechnology, Santa Cruz, Calif., USA)."}, "SIRT1 [3]": {"tested_on": "SIRT1", "test": "SIRT1 expression promoting effect in adipocytes, hepatocytes and myocytes (qRT-PCR)", "type": "cell-based, human", "conditions": "24 hours, FIG. 4", "method": "The SIRT1 gene expression promoting effect of syringaresinol in human adipocytes, hepatocytes and myocytes was evaluated as follows.\nHuman adipocytes, hepatocytes and myocytes were purchased from Zen-Bio (Research Triangle Park, N.C., USA) and cultured in a 5% CO2 incubator using respectively an adipocyte medium (OM-AM, Zen-Bio), a hepatocyte medium (HM-2, Zen-Bio) and a myocyte medium (SKM-D, SKM-M, Zen-Bio). The cells were treated with syringaresinol dissolved in DMSO to a concentration of 20, 50 or 100 μM for 24 hours. A negative control group was treated with DMSO corresponding to 1/1000 of the volume of the culture medium.\nThe cells treated with each sample were washed 2 times with cold PBS and RNA was extracted therefrom using the TRIzol reagent (Invitrogen). Then, cDNA was synthesized from the extracted RNA ([…]) using a reverse transcription system (Fermentas, Glen Burnie, Md., USA). The expression pattern of the SIRT1 and GAPDH genes was monitored by qRT-PCR using the synthesized cDNA and predesigned primers and probes. PCR reaction and analysis were carried out using the Rotor-Gene 3000 system (Corbett Research, Sydney, Australia)."}, "SIRT1 [4]": {"tested_on": "SIRT1", "test": "SIRT1 expression promoting effect in human PBMCs (qRT-PCR)", "type": "cell-based", "conditions": "human PBMCs, 20, 50 or 100 μM, 24 hours; FIG. 17", "method": "The SIRT1 gene expression promoting effect of syringaresinol in human PBMCs was evaluated as follows.\nHuman PBMCs were purchased from Zen-Bio (Research Triangle Park, N.C., USA) and cultured in a 5% CO2 incubator using a PBMC medium (Zen-Bio) until 80% confluency. Then, the cells were treated for 24 hours with syringaresinol dissolved in DMSO to a concentration of 20, 50 or 100 μM. A negative control group was treated with DMSO corresponding to 1/1000 of the volume of the culture medium. The cells treated with each sample were washed with PBS and RNA was extracted therefrom using the TRIzol reagent (Invitrogen). Then, cDNA was synthesized from the extracted RNA (5 μg) using a reverse transcription system (Fermentas, Glen Burnie, Md., USA). The expression pattern of the SIRT1 and GAPDH genes was monitored by qRT-PCR using the synthesized cDNA and predesigned primers and probes. qRT-PCR reaction and analysis were carried out using the Rotor-Gene 3000 system (Corbett Research, Sydney, Australia)."}}, "data": [{"smiles": "COc1cc(C2OCC3C(c4cc(OC)c(O)c(OC)c4)OCC23)cc(OC)c1O", "note": "(stereo not shown) [syringaresinol]", "values": [{"measurement": "increased energy (ATP) production", "setting": "[1]; 50 μM", "value": "about 21%"}, {"measurement": "increased energy (ATP) production", "setting": "[1]; 100 μM", "value": "~33", "unit": "%"}, {"measurement": "fatty acid oxidation", "setting": "Human hepatocytes", "value": "increased fatty acid oxidation"}, {"measurement": "fatty acid oxidation", "setting": "Human adipocytes", "value": "increased fatty acid oxidation"}, {"measurement": "expression of fatty acid oxidation promoting genes", "setting": "ACO, CPT1, mCAD; human adipocytes, FIG. 8", "value": "increased the expression of fatty acid oxidation promoting genes"}, {"measurement": "expression of fatty acid oxidation promoting genes", "setting": "ACO, CPT1, mCAD; human hepatocytes, FIG. 9", "value": "increased the expression of fatty acid oxidation promoting genes"}, {"measurement": "expression of fatty acid oxidation promoting genes", "setting": "ACO, CPT1, mCAD; human myocytes, FIG. 10", "value": "increased the expression of fatty acid oxidation promoting genes"}, {"measurement": "SIRT1 protein expression", "setting": "SIRT1 [2]; 100 μM every other day", "value": "increased SIRT1 expression to a level comparable to that of young retinal epithelial cells"}, {"measurement": "SIRT1 protein expression", "setting": "SIRT1 [2]; 50 or 100 μM every other day", "value": "increased SIRT1 expression, which had been decreased in aged retinal cells, in a concentration-dependent manner"}, {"measurement": "SIRT1 expression", "setting": "SIRT1 [3]; human adipocytes, 20, 50 or 100 μM", "value": "increased SIRT1 expression"}, {"measurement": "SIRT1 expression", "setting": "SIRT1 [3]; human hepatocytes, 20, 50 or 100 μM", "value": "increased SIRT1 expression"}, {"measurement": "SIRT1 expression", "setting": "SIRT1 [3]; human myocytes, 20, 50 or 100 μM", "value": "increased SIRT1 expression"}, {"measurement": "SIRT1 expression", "setting": "SIRT1 [4]", "value": "increased SIRT1 expression in PBMCs in a concentration-dependent manner"}]}]}
